According to ChEMBL document CHEMBL1201862, “PubChem BioAssay data set” (2004):
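A five-concentration, 48-hour dose response in 96-well plates underlies each endpoint, interpolated linearly between surrounding concentrations. Here, GI50 denotes the concentration required for 50% inhibition of growth.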 Active and inactive are the calls of the source. Rule as the data show it: active = GI50 up to about 1.1 µM and inactive = higher.

Legend:
Assay in all cases: inhibition of tumour cell growth, NCI panel, 48 h
[1] = tested on: SK-MEL-5
[2] = tested on: Malme-3M
[3] = tested on: A498
[4] = tested on: SK-MEL-2
[5] = tested on: NCI-H522
[6] = tested on: SNB-19
[7] = tested on: U-251
[8] = tested on: K562
[9] = tested on: M14
[10] = tested on: UACC-257
[11] = tested on: CCRF-CEM
[12] = tested on: XF498
[13] = tested on: HOP-92
[14] = tested on: M19-MEL
[15] = tested on: KM12
[16] = tested on: LXFL 529
[17] = tested on: SF-539
[18] = tested on: RXF 393
[19] = tested on: OVCAR-3
[20] = tested on: SF-295
[21] = tested on: DMS-114
[22] = tested on: DMS-273
[23] = tested on: RPMI-8226
[24] = tested on: OVCAR-5
[25] = tested on: HL-60
[26] = tested on: IGROV-1
[27] = tested on: OVCAR-8
[28] = tested on: DLD-1
[29] = tested on: A549
[30] = tested on: OVCAR-4
[31] = tested on: NCI-H460
[32] = tested on: 786-0
[33] = tested on: KM-20L2
[34] = tested on: SR
[35] = tested on: HCC 2998
[36] = tested on: MOLT-4
[37] = tested on: CAKI-1
[38] = tested on: SNB-75
[39] = tested on: NCI-H23
[40] = tested on: ACHN
[41] = tested on: UO-31
[42] = tested on: SW-620
[43] = tested on: SK-OV-3
[44] = tested on: SF-268
[45] = tested on: UACC-62
[46] = tested on: HOP-62
[47] = tested on: NCI-H226
[48] = tested on: RXF 631
[49] = tested on: EKVX
[50] = tested on: TK-10
[51] = tested on: SNB-78
[52] = tested on: SK-MEL-28
[53] = tested on: HCT-15
[54] = tested on: HCT-116
[55] = tested on: COLO 205
[56] = tested on: HOP-18
[57] = tested on: LOX IMVI
[58] = tested on: HT-29
[59] = tested on: SN12C

## Oc1ccc2c(c1)OCC1(O)Cc3cc(O)c(O)cc3C21 (centres undefined)
[1]
  GI50: 17.7 µM (inactive)
[2]
  GI50: 16.9 µM (inactive)
[3]
  GI50: 19.1 µM (inactive)
[4]
  GI50: 27.1 µM (inactive)
[5]
  GI50: 21.3 µM (inactive)
[6]
  GI50: 28.7 µM (inactive)
[7]
  GI50: 18.7 µM (inactive)
[8]
  GI50: 27.7 µM (inactive)
[9]
  GI50: 19.2 µM (inactive)
[10]
  GI50: 19.9 µM (inactive)
[11]
  GI50: 29.7 µM (inactive)
[12]
  GI50: 15.2 µM (inactive)
[13]
  GI50: 21.6 µM (inactive)
[14]
  GI50: 29.1 µM (inactive)
[15]
  GI50: 32.7 µM (inactive)
[16]
  GI50: 18.5 µM (inactive)
[17]
  GI50: 17 µM (inactive)
[18]
  GI50: 15.9 µM (inactive)
[19]
  GI50: 16.2 µM (inactive)
[20]
  GI50: > 55.5 µM (inactive)
[21]
  GI50: 26.7 µM (inactive)
[22]
  GI50: 35.8 µM (inactive)
[23]
  GI50: 26.5 µM (inactive)
[24]
  GI50: 22.5 µM (inactive)
[25]
  GI50: 25.6 µM (inactive)
[26]
  GI50: 39.6 µM (inactive)
[27]
  GI50: 21.9 µM (inactive)
[28]
  GI50: 17.3 µM (inactive)
[29]
  GI50: > 57.7 µM (inactive)
[30]
  GI50: 19.1 µM (inactive)
[31]
  GI50: 27.8 µM (inactive)
[32]
  GI50: 19.5 µM (inactive)
[33]
  GI50: 38.3 µM (inactive)
[34]
  GI50: 30.8 µM (inactive)
[35]
  GI50: 21.2 µM (inactive)
[36]
  GI50: 24.4 µM (inactive)
[37]
  GI50: 18.1 µM (inactive)
[38]
  GI50: 24.3 µM (inactive)
[39]
  GI50: 18.1 µM (inactive)
[40]
  GI50: 18.2 µM (inactive)
[41]
  GI50: 60.1 µM (inactive)
[42]
  GI50: 18.6 µM (inactive)
[43]
  GI50: 39.9 µM (inactive)
[44]
  GI50: 27.1 µM (inactive)
[45]
  GI50: 19.7 µM (inactive)
[46]
  GI50: > 58.1 µM (inactive)
[47]
  GI50: > 52.5 µM (inactive)
[48]
  GI50: 41 µM (inactive)
[49]
  GI50: 27 µM (inactive)
[50]
  GI50: 17.4 µM (inactive)
[51]
  GI50: 14.7 µM (inactive)
[52]
  GI50: 17.5 µM (inactive)
[53]
  GI50: 20.2 µM
[54]
  GI50: 21 µM (inactive)
[55]
  GI50: 16.8 µM (inactive)
[56]
  GI50: 18.3 µM (inactive)
[57]
  GI50: 19.4 µM (inactive)
[58]
  GI50: 21.3 µM (inactive)
[59]
  GI50: 21.8 µM (inactive)

## O=c1nc(NC2CCCCO2)ccn1CCO (centres undefined)
[1]
  GI50: > 100 µM (inactive)
[2]
  GI50: > 100 µM (inactive)
[3]
  GI50: > 100 µM (inactive)
[4]
  GI50: > 100 µM (inactive)
[5]
  GI50: > 100 µM (inactive)
[7]
  GI50: > 100 µM (inactive)
[8]
  GI50: > 100 µM (inactive)
[9]
  GI50: > 100 µM (inactive)
[10]
  GI50: > 100 µM (inactive)
[11]
  GI50: > 100 µM (inactive)
[12]
  GI50: 51.4 µM (inactive)
[13]
  GI50: > 100 µM (inactive)
[14]
  GI50: > 100 µM (inactive)
[15]
  GI50: > 100 µM (inactive)
[16]
  GI50: > 100 µM (inactive)
[17]
  GI50: > 100 µM (inactive)
[18]
  GI50: > 100 µM (inactive)
[19]
  GI50: > 100 µM (inactive)
[20]
  GI50: > 100 µM (inactive)
[21]
  GI50: > 100 µM (inactive)
[22]
  GI50: > 100 µM (inactive)
[23]
  GI50: > 100 µM (inactive)
[24]
  GI50: > 100 µM (inactive)
[25]
  GI50: > 100 µM (inactive)
[26]
  GI50: > 100 µM (inactive)
[27]
  GI50: > 100 µM (inactive)
[28]
  GI50: > 100 µM (inactive)
[29]
  GI50: > 100 µM (inactive)
[30]
  GI50: > 100 µM (inactive)
[31]
  GI50: > 100 µM (inactive)
[32]
  GI50: > 100 µM (inactive)
[33]
  GI50: > 100 µM (inactive)
[34]
  GI50: > 100 µM (inactive)
[37]
  GI50: > 100 µM (inactive)
[38]
  GI50: > 100 µM (inactive)
[40]
  GI50: > 100 µM (inactive)
[41]
  GI50: > 100 µM (inactive)
[42]
  GI50: > 100 µM (inactive)
[43]
  GI50: > 100 µM (inactive)
[44]
  GI50: > 100 µM (inactive)
[45]
  GI50: > 100 µM (inactive)
[46]
  GI50: > 100 µM (inactive)
[47]
  GI50: > 100 µM (inactive)
[48]
  GI50: > 100 µM (inactive)
[49]
  GI50: > 100 µM (inactive)
[50]
  GI50: > 100 µM (inactive)
[51]
  GI50: > 100 µM (inactive)
[52]
  GI50: > 100 µM (inactive)
[53]
  GI50: > 100 µM
[54]
  GI50: > 100 µM (inactive)
[55]
  GI50: > 100 µM (inactive)
[56]
  GI50: > 100 µM (inactive)
[57]
  GI50: > 100 µM (inactive)
[58]
  GI50: > 100 µM (inactive)
[59]
  GI50: > 100 µM (inactive)
